Source: PubChem BioAssay (NCI)
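Five concentrations, 48 hours, 96-well plates. TGI is the concentration that stops growth completely.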

Experiments:
Assay in all cases: inhibition of tumour cell growth, NCI panel, 48 h
NCI-H23 lung = test system: NCI-H23 lung
A549 NSCLC = test system: A549 NSCLC
SNB-78 CNS = test system: SNB-78 CNS
XF 498 CNS = test system: XF 498 CNS
MALME-3M melanoma = test system: MALME-3M melanoma
LOX IMVI melanoma = test system: LOX IMVI melanoma
M19-MEL melanoma = test system: M19-MEL melanoma
HT29 colon = test system: HT29 colon
NCI-H460 lung = test system: NCI-H460 lung
K-562 leukemia = test system: K-562 leukemia
UACC-257 melanoma = test system: UACC-257 melanoma
RPMI-8226 leukemia = test system: RPMI-8226 leukemia
SK-MEL-28 melanoma = test system: SK-MEL-28 melanoma
DMS 273 small cell lung = test system: DMS 273 small cell lung
MOLT-4 leukemia = test system: MOLT-4 leukemia
SN12C renal = test system: SN12C renal
CCRF-CEM leukemia = test system: CCRF-CEM leukemia
TK-10 renal = test system: TK-10 renal
ACHN renal = test system: ACHN renal
M14 melanoma = test system: M14 melanoma

Row | SMILES | TGI (NCI-H23 lung) [µM] | TGI (A549 NSCLC) [µM] | TGI (SNB-78 CNS) [µM] | TGI (XF 498 CNS) [µM] | TGI (MALME-3M melanoma) [µM] | TGI (LOX IMVI melanoma) [µM] | TGI (M19-MEL melanoma) [µM] | TGI (HT29 colon) [µM] | TGI (NCI-H460 lung) [µM] | TGI (K-562 leukemia) [µM] | TGI (UACC-257 melanoma) [µM] | TGI (RPMI-8226 leukemia) [µM] | TGI (SK-MEL-28 melanoma) [µM] | TGI (DMS 273 small cell lung) [µM] | TGI (MOLT-4 leukemia) [µM] | TGI (SN12C renal) [µM] | TGI (CCRF-CEM leukemia) [µM] | TGI (TK-10 renal) [µM] | TGI (ACHN renal) [µM] | TGI (M14 melanoma) [µM]
1 | CCN(CC)CCCOC(=O)/C=C/c1c(C)[nH]c(=O)[nH]c1=O | > 625 | > 625 | > 625 | > 625 | > 625 | > 625 | > 625 | > 394 | > 625 | > 625 | > 625 | > 625 | > 625 | > 625 | > 625 | > 463 | > 625 |  |  | 
2 | Cc1c2c(cc3c1[nH]c1ccccc13)C=NCC2 | 82.4 | 61.6 | 63.8 | 12.6 | 11.7 | 36.6 | 33 | 31.7 | 27.7 | 20.8 | 19.6 | 51.6 | 16.8 | 45.8 | 24.8 | 62.6 | 30.5 |  |  | 
3 | CCCCCCCCCCCCCCCCSCC(COC)COP(=O)([O-])OCC[N+](C)(C)C (stereo unspecified) | 28.2 | 20.5 | 26.1 | 19.8 | 29.4 | 17.4 | 11 | 12.8 | 6.2 | 28 | 28.8 | 8.48 | 29.5 | 3.9 | 6.05 | 11.3 | 10.1 |  |  | 
4 | Nc1nc2c(c(=O)[nH]1)N(C=O)C(CNc1ccc(C(=O)N[C@@H](CCC(=O)O)C(=O)O)cc1)CN2 (stereo partly specified) | > 125 | > 125 | > 125 |  | > 125 | > 125 | > 125 | > 125 | > 125 | > 31.4 | > 125 | > 125 | > 125 | > 125 | > 125 | > 125 | > 31.4 |  |  | 
5 | C/C(=N\NS(=O)(=O)c1ccccc1)c1ccccc1 | > 100 | > 100 | > 100 | > 100 | > 100 | > 100 |  | > 100 | > 100 | > 100 | > 100 | > 100 | > 100 | > 100 | > 100 | > 100 | > 100 |  |  | 
6 | C=C1C[C@@H](O)C[C@@]2(C)C[C@@H]3OC(=O)C(=C)[C@@H]3C[C@H]12 | 35.4 | 81 | 37.3 | 4.71 | 13.4 | 21.5 | > 100 | 10.8 | > 58.6 | > 100 | 15.9 | 34.5 | 14 | 20.5 | 16.1 | 19.6 | > 36.1 |  |  | 
7 | O=C(CC/C=C(/CS(=O)(=O)c1ccccc1)S(=O)(=O)c1ccccc1)c1ccccc1 | > 100 | > 100 |  | > 100 |  | > 100 |  | > 100 | > 100 | > 100 | > 100 | > 100 | > 100 | > 100 | > 100 | > 100 | > 100 | > 100 | > 100 | > 100
8 | Cc1cc(O)c2c(c1O)C(=O)C13C(=C2O)C(=O)C2C(O)C1C1C(O)C3C(=O)C3=C(O)c4c(O)cc(C)c(O)c4C(=O)C321 (stereo unspecified) |  | 1.08 | 0.722 | 0.504 | 0.327 | 1.46 |  | 0.406 |  | 0.56 | 3.46 | < 0.0312 | 0.59 | 0.621 | 0.483 |  | 0.613 |  |  | 
9 | CC(=O)NCCC1CN(C(=O)/C=C\C#C[Si](C)(C)C)c2ccccc21 (stereo unspecified) | 28.4 | > 100 |  |  | 49.4 | 44.3 |  | 58.9 | > 100 | > 100 | 9.27 | > 100 | > 100 |  | > 100 | > 100 | > 100 | > 100 | > 100 | 45.5
